# Assay results taken from US6737383B1, “Herbicidal oxadiazolidines” (priority 1999, dated 2004).
# How the values were obtained:
# bedstraw = assay: Test B pre/postemergence bedstraw; format: in vivo, Galium aparine
# Outline: (§1)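 Herbicidal effect was estimated by eye on a ten-point control scale after plants spent twelve to sixteen days in a greenhouse following soil or foliar treatment. Foliar sprays targeted plants at one to four leaves; all doses were formulated in a non-phytotoxic solvent with surfactant.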
# blackgrass = assay: Test B pre/postemergence blackgrass; format: in vivo, Alopecurus myosuroides
# Outline: as §1
# surinam grass = assay: Test B pre/postemergence surinam grass; format: in vivo, Brachiaria decumbens
# Outline: as §1
# cocklebur = assay: Test B pre/postemergence cocklebur; format: in vivo, Xanthium strumarium
# Outline: as §1
# corn = assay: Test B pre/postemergence corn; format: in vivo, Zea mays
# Outline: as §1
# crabgrass = assay: Test B pre/postemergence crabgrass; format: in vivo, Digitaria sanguinalis
# Outline: as §1
# pigweed = assay: Test B pre/postemergence pigweed; format: in vivo, Amaranthus retroflexus
# Outline: as §1
# rape = assay: Test B pre/postemergence rape; format: in vivo, Brassica napus
# Outline: as §1
# soybean = assay: Test B pre/postemergence soybean; format: in vivo, Glycine max
# Outline: as §1
# sugar beet = assay: Test B pre/postemergence sugar beet; format: in vivo, Beta vulgaris
# Outline: as §1
# velvetleaf = assay: Test B pre/postemergence velvetleaf; format: in vivo, Abutilon theophrasti
# Outline: as §1
# wheat = assay: Test B pre/postemergence wheat; format: in vivo, Triticum aestivum
# Outline: as §1
# wild oat = assay: Test B pre/postemergence wild oat; format: in vivo, Avena fatua
# Outline: as §1
# purple nutsedge = assay: Test B pre/postemergence purple nutsedge; format: in vivo, Cyperus rotundus
# Outline: as §1
# smallflower flatsedge = assay: Test B flood test smallflower flatsedge; format: in vivo, Cyperus difformis
# Outline: (§2)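 Flood test on plants grown to the 2-leaf stage; treated plants kept in greenhouse twelve to sixteen days, then visually rated against controls on a 0 (no effect) to 10 (complete control) scale.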
# bamyardgrass = assay: Test B flood test barnyardgrass; format: in vivo, Echinochloa crus-galli
# Outline: as §2
# [1] = Preemergence, Rate 62 g/ha, scale of 0 to 10 where 0 is no effect and 10 is complete control
# [2] = Preemergence, Rate 250 g/ha, scale of 0 to 10 where 0 is no effect and 10 is complete control
# [3] = Rate 62 g/ha, Postemergence, scale 0 to 10 (0 no effect, 10 complete control)
# [4] = Rate 125 g/ha, Postemergence, scale of 0 to 10 where 0 is no effect and 10 is complete control
# [5] = Preemergence, Rate 500 g/ha, scale of 0 to 10 where 0 is no effect and 10 is complete control
# [6] = Rate 250 g/ha, Postemergence, scale of 0 to 10 where 0 is no effect and 10 is complete control
# [7] = Rate 500 g/ha, Postemergence, scale 0 to 10, 0 no effect, 10 complete control
# [8] = Rate 62 g/ha, headed Pre-emergence (flood test species), scale 0 to 10 (0 no effect, 10 complete control)
# [9] = Rate 125 g/ha, Pre-emergence, flood test species, scale 0 to 10 where 0 is no effect and 10 is complete control
# [10] = Rate 250 g/ha, Pre-emergence, flood-test species, scale 0 to 10, 0 is no effect, 10 is complete control
# [11] = Rate 500 g/ha, Pre-emergence, flood test species, scale 0 to 10 (0 no effect, 10 complete control)
smiles,measurement,setting,value
CC(C)N(C(=O)n1oc(=O)n(CCCN(C)C)c1=O)c1ccc(F)cc1 [Compound 323],Bedstraw plant response rating,bedstraw; [1],0
same,Bedstraw plant response rating (0 to 10 scale),"bedstraw; Preemergence, Rate 125 g/ha",0
same,Bedstraw plant response rating,bedstraw; [2],0
same,Bedstraw plant response rating,bedstraw; [3],0
same,Bedstraw plant response rating,bedstraw; [4],0
same,Blackgrass plant response rating,blackgrass; [1],0
same,Blackgrass plant response rating (0 to 10 scale),"blackgrass; Preemergence, Rate 125 g/ha",0
same,Blackgrass plant response rating,blackgrass; [2],0
same,Blackgrass plant response rating,blackgrass; [5],0
same,Blackgrass plant response rating,blackgrass; [3],0
same,Blackgrass plant response rating,blackgrass; [4],0
same,"Plant response rating, Blackgrass",blackgrass; [6],0
same,"Plant response rating, Blackgrass",blackgrass; [7],0
same,B. signalgrass plant response rating,surinam grass; [1],0
same,"B. signalgrass plant response rating (0 to 10 scale, 0 is no effect, 10 is complete control)","surinam grass; Preemergence, Rate 125 g/ha",0
same,B. signalgrass plant response rating,surinam grass; [2],0
same,B. signalgrass plant response rating,surinam grass; [5],0
same,B. signalgrass plant response rating,surinam grass; [3],0
same,B. signalgrass plant response rating,surinam grass; [4],0
same,"Plant response rating, B. signalgrass",surinam grass; [6],0
same,"Plant response rating, B. signalgrass",surinam grass; [7],0
same,Cocklebur plant response rating,cocklebur; [1],0
same,Cocklebur plant response rating (0 to 10 scale),"cocklebur; Preemergence, Rate 125 g/ha",0
same,Cocklebur plant response rating,cocklebur; [2],0
same,Cocklebur plant response rating,cocklebur; [5],0
same,Cocklebur plant response rating,cocklebur; [3],0
same,Cocklebur plant response rating,cocklebur; [4],0
same,"Plant response rating, Cocklebur",cocklebur; [6],0
same,"Plant response rating, Cocklebur",cocklebur; [7],0
same,Corn plant response rating,corn; [1],0
same,Corn plant response rating (0 to 10 scale),"corn; Preemergence, Rate 125 g/ha",0
same,Corn plant response rating,corn; [2],0
same,Corn plant response rating,corn; [5],0
same,Corn plant response rating,corn; [3],0
same,Corn plant response rating,corn; [4],0
same,"Plant response rating, Corn",corn; [6],0
same,"Plant response rating, Corn",corn; [7],0
same,Crabgrass plant response rating,crabgrass; [1],0
same,Crabgrass plant response rating (0 to 10 scale),"crabgrass; Preemergence, Rate 125 g/ha",0
same,Crabgrass plant response rating,crabgrass; [2],0
same,Crabgrass plant response rating,crabgrass; [5],2
same,Crabgrass plant response rating,crabgrass; [3],0
same,Crabgrass plant response rating,crabgrass; [4],0
same,"Plant response rating, Crabgrass",crabgrass; [6],0
same,"Plant response rating, Crabgrass",crabgrass; [7],0
same,Redroot pigweed plant response rating,pigweed; [1],0
same,Redroot pigweed plant response rating (0 to 10 scale),"pigweed; Preemergence, Rate 125 g/ha",0
same,Redroot pigweed plant response rating,pigweed; [2],0
same,Redroot pigweed plant response rating,pigweed; [5],0
same,Redroot pigweed plant response rating,pigweed; [3],0
same,Redroot pigweed plant response rating,pigweed; [4],0
same,"Plant response rating, Redroot pigweed",pigweed; [6],0
same,"Plant response rating, Redroot pigweed",pigweed; [7],0
same,Rape plant response rating,rape; [1],0
same,Rape plant response rating (0 to 10 scale),"rape; Preemergence, Rate 125 g/ha",0
same,Rape plant response rating,rape; [2],0
same,Rape plant response rating,rape; [5],0
same,Rape plant response rating,rape; [3],0
same,Rape plant response rating,rape; [4],0
same,"Plant response rating, Rape",rape; [6],0
same,"Plant response rating, Rape",rape; [7],0
same,Soybean plant response rating,soybean; [1],0
same,Soybean plant response rating (0 to 10 scale),"soybean; Preemergence, Rate 125 g/ha",0
same,Soybean plant response rating,soybean; [2],0
same,Soybean plant response rating,soybean; [5],0
same,Soybean plant response rating,soybean; [3],0
same,Soybean plant response rating,soybean; [4],1
same,"Plant response rating, Soybean",soybean; [6],2
same,"Plant response rating, Soybean",soybean; [7],2
same,Sugarbeets plant response rating,sugar beet; [1],0
same,Sugarbeets plant response rating (0 to 10 scale),"sugar beet; Preemergence, Rate 125 g/ha",0
same,Sugarbeets plant response rating,sugar beet; [2],0
same,Sugarbeets plant response rating,sugar beet; [5],0
same,Sugarbeets plant response rating,sugar beet; [3],0
same,Sugarbeets plant response rating,sugar beet; [4],0
same,"Plant response rating, Sugarbeets",sugar beet; [6],0
same,"Plant response rating, Sugarbeets",sugar beet; [7],0
same,Velvetleaf plant response rating,velvetleaf; [1],0
same,Velvetleaf plant response rating (0 to 10 scale),"velvetleaf; Preemergence, Rate 125 g/ha",0
same,Velvetleaf plant response rating,velvetleaf; [2],0
same,Velvetleaf plant response rating,velvetleaf; [5],0
same,Velvetleaf plant response rating,velvetleaf; [3],0
same,Velvetleaf plant response rating,velvetleaf; [4],0
same,"Plant response rating, Velvetleaf",velvetleaf; [6],0
same,"Plant response rating, Velvetleaf",velvetleaf; [7],0
same,Wheat plant response rating,wheat; [1],0
same,Wheat plant response rating (0 to 10 scale),"wheat; Preemergence, Rate 125 g/ha",0
same,Wheat plant response rating,wheat; [2],0
same,Wheat plant response rating,wheat; [5],0
same,Wheat plant response rating,wheat; [3],0
same,Wheat plant response rating,wheat; [4],0
same,"Plant response rating, Wheat",wheat; [6],0
same,"Plant response rating, Wheat",wheat; [7],0
same,Wild oats plant response rating,wild oat; [1],0
same,Wild oats plant response rating (0 to 10 scale),"wild oat; Preemergence, Rate 125 g/ha",0
same,Wild oats plant response rating,wild oat; [2],0
same,Wild oats plant response rating,wild oat; [5],0
same,Wild oats plant response rating,wild oat; [3],0
same,Wild oats plant response rating,wild oat; [4],0
same,"Plant response rating, Wild oats",wild oat; [6],0
same,"Plant response rating, Wild oats",wild oat; [7],0
same,Nutsedge plant response rating,purple nutsedge; [1],0
same,Nutsedge plant response rating (0 to 10 scale),"purple nutsedge; Preemergence, Rate 125 g/ha",0
same,Nutsedge plant response rating,purple nutsedge; [5],0
same,Nutsedge plant response rating,purple nutsedge; [3],0
same,Nutsedge plant response rating,purple nutsedge; [4],0
same,"Plant response rating, Nutsedge",purple nutsedge; [6],0
same,"Plant response rating, Nutsedge",purple nutsedge; [7],0
same,S. Flatsedge plant response rating,smallflower flatsedge; [8],0
same,S. Flatsedge plant response rating,smallflower flatsedge; [9],0
same,S. Flatsedge plant response rating,smallflower flatsedge; [10],0
same,S. Flatsedge plant response rating,smallflower flatsedge; [11],0
same,Barnyardgrass plant response rating,bamyardgrass; [8],0
same,Barnyardgrass plant response rating,bamyardgrass; [9],0
same,Barnyardgrass plant response rating,bamyardgrass; [10],0
same,Barnyardgrass plant response rating,bamyardgrass; [11],0
